Experimental findings from patent publication US12281119B2, “Imidazo[2,1-f][1,2,4]triazin-4-amine derivatives as TLR7 agonist” (BEIGENE, LTD., priority 2019, dated 2025) are described below.

The target of one experiment is T1, human TLR 8 protein (Homo sapiens, UniProt Q9NR97).
T1 construct: expressed in transfected cells; host or cells: HEK293 (HEK-Blue hTLR8)
T1 sequence (Q9NR97 27-1041): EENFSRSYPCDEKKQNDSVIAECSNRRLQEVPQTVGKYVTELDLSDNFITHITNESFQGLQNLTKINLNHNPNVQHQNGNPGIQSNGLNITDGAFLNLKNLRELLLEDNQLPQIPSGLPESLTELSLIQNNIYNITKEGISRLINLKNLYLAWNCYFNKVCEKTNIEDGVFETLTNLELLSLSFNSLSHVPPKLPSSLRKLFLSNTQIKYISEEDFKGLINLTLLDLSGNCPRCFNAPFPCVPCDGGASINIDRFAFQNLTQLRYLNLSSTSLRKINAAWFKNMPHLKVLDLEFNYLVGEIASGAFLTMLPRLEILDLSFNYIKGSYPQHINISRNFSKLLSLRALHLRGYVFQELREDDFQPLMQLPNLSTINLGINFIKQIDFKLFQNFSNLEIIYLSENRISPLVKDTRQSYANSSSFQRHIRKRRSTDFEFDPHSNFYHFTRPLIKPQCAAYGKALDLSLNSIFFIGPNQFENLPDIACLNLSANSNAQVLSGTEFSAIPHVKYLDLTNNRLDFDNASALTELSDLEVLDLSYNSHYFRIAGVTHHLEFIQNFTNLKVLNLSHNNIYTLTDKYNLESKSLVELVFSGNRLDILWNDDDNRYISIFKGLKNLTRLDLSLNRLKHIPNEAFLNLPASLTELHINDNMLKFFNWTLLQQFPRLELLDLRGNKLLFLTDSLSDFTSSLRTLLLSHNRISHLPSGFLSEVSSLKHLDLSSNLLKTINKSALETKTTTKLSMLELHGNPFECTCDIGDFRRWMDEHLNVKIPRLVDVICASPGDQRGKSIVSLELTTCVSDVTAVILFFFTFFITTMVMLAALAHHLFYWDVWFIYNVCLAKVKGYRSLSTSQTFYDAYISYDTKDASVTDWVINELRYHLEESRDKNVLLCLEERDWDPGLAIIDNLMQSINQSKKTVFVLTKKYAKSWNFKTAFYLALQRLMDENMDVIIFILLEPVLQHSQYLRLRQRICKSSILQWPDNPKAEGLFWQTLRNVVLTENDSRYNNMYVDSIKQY
The experiment in a line: TLR8 stimulation determined using HEK-Blue Detection. Type of experiment: cell-based. The following applies: HEK-Blue hTLR8 cells, 16 hr, relative to Resiquimod or Motolimod maximum. The text has this: TLR8 Stimulation Determined Using HEK-Blue Detection
This assay was designed for studying the stimulation of human TLR 8 protein in HEK-Blue hTLR8 tool cell line by monitoring the activation of NF-1B. HEK-Blue hTLR8 cells were obtained by co-transfection of the hTLR8 gene and an optimized secreted embryonic alkaline phosphatase (SEAP) reporter gene into HEK293 cells. The SEAP reporter gene was placed under the control of the IFN-β minimal promoter fused to five NF-κB and AP-1-binding sites. Stimulation with a TLR 8 ligand activates NF-κB and AP-1 which induce the expression of SEAP. Levels of SEAP can be easily determined with HEK-Blue Detection, a cell culture medium that allows for real-time detection of SEAP. HEK-Blue Detection contains all the nutrients necessary for cell growth and a specific SEAP color substrate. The hydrolysis of the substrate by SEAP produces a purple/blue color that can be measured with a spectrophotometer.
When growing to 50-80% confluency, HEK-Blue hTLR7/8 cells were plated into 96-well plate (costar 3599) at a density of 40000 cells/well. Then compounds were added with serial dilutions over 10 points with a 1 nM-10 uM final concentration range in 0.1% DMSO/HEK-Blue Detection. The plates were then incubated for 16 hr at 37° C. in 5% CO2. The optical density at 620-655 nm was read on BMG PHERAstar FSX instrument. The EC50 for each compound was determined by calculating the percentages of the maximum activation identified with Resiquimod or Motolimod.

In another experiment the target is T2, human TLR7 (Homo sapiens, UniProt Q9NYK1).
T2 sequence (Q9NYK1 27-1049): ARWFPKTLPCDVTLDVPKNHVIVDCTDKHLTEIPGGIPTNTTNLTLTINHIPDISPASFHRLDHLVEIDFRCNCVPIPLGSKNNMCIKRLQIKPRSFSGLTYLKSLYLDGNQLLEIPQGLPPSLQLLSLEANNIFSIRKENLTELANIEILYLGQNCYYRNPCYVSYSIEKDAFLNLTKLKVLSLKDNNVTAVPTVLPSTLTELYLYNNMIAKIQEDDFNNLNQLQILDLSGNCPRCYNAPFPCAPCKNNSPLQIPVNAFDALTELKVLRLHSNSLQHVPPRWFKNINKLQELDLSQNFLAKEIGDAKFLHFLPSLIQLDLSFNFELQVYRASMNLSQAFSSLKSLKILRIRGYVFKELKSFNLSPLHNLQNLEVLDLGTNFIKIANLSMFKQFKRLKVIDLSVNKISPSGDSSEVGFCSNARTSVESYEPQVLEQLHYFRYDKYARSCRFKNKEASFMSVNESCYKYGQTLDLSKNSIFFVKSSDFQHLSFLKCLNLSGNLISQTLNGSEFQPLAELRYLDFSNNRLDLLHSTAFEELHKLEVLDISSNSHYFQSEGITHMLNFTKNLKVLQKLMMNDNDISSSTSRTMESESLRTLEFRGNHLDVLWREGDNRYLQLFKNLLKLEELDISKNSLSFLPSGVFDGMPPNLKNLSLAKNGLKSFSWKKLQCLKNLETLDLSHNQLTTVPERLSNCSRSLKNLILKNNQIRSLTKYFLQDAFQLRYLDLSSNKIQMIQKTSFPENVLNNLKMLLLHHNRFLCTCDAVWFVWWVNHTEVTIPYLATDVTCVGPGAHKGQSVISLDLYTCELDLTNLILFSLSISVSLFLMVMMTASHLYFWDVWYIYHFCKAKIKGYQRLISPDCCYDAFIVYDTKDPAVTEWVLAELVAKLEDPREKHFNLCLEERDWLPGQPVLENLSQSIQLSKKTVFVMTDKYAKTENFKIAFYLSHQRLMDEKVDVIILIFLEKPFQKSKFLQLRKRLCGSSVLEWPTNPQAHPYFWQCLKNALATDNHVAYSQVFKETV
The experiment can be described thus: TLR7 stimulation determined using HEK-Blue Detection. Type of experiment: cell-based. The following applies: HEK-Blue hTLR7 cells, HEK-Blue Detection (A77-A124), 16 hr, relative to Resiquimod maximum. On the set-up: expressed in transfected cells; host or cells: HEK293 (HEK-Blue hTLR7). The text has this: TLR7 Stimulation Determined Using HEK-Blue Detection
This assay was designed for studying the stimulation of human TLR7 protein in HELK-Blue hTLR7 tool cell line by monitoring the activation of NF-κB. HEK-Blue hTLR7 cells were obtained by co-transfection of the hTLR7 gene and an optimized secreted embryonic alkaline phosphatase (SLAP) reporter gene into HEK293 cells. The SLAP reporter gene was placed under the control of the IFN-β minimal promoter fused to five NF-κB and AP-1-binding sites. Stimulation with a TLR7 ligand activates NF-κB and AP-1 which induce the expression of SLAP. Levels of SLAP can be easily determined with HEK-Blue Detection, a cell culture medium that allows for real-time detection of SLAP. HLK-Blue Detection contains all the nutrients necessary for cell growth and a specific SLAP color substrate. The hydrolysis of the substrate by SLAP produces a purple/blue color that can be measured with a spectrophotometer.
When growing to 50-80%0 confluency, HLK-Blue hTLR7 cells were plated into 96-well plate (costar 3599) at a density of 40000 cells/well. Then compounds were added with serial dilutions over 10 points with a 0.04 nM-10 μM final concentration range in 0.1% DMSO/BLK-Blue Detection. The plates were then incubated for 16 hr at 37° C. in […] and vortex for 30s before measurement. The optical density at 620-655 nm was read on BMG PHLRAstar FSX instrument. The EC50 for each compound was determined by calculating the percentages of the maximum activation identified with Resiquimod.

Broadly, the EC50 is the concentration that produces a half-maximal response. High values mean a less potent agent, low ones a more potent agent. For the molecule `CCCC(CCO)Oc1nc(N)c2ncc(Cc3cc(OC)cc(OCCNC)c3)n2n1` (single isomer, unassigned) [Compound A116, (R or S)-3-((4-amino-7-(3-methoxy-5-(2-(methylamino)ethoxy)benzyl)imidazo[2,1-f][1,2,4]triazin-2-yl)oxy)hexan-1-ol], the values for the EC50 on human TLR 8 protein and on human TLR7 were 51 nM and 37.8 nM, respectively.

For the molecule `CCCC(CCO)Oc1nc(N)c2ncc(Cc3ccc(OC)c(OCCNC)c3)n2n1` (single isomer, unassigned) [Compound A117, (R or S)-3-((4-amino-7-(4-methoxy-3-(2-(methylamino)ethoxy)benzyl)imidazo[2,1-f][1,2,4]triazin-2-yl)oxy)hexan-1-ol], the figures for the EC50 at human TLR 8 protein and at human TLR7 were 532 nM and 13 nM, respectively.

As to `CCCC(CCO)Oc1nc(N)c2ncc(Cc3cccc(OCCNC)c3OC)n2n1` (single isomer, unassigned) [Compound A118, (R or S)-3-((4-amino-7-(2-methoxy-3-(2-(methylamino)ethoxy)benzyl)imidazo[2,1-f][1,2,4]triazin-2-yl)oxy)hexan-1-ol], the EC50 at human TLR 8 protein came out at 21 nM; at human TLR7 it was 11 nM.

With `CCCC(CCO)Oc1nc(N)c2ncc(Cc3ccc(CCNC)cc3)n2n1` (single isomer, unassigned) [Compound A119, (R or S)-3-((4-amino-7-(4-(2-(methylamino)ethyl)benzyl)imidazo[2,1-f][1,2,4]triazin-2-yl)oxy)hexan-1-ol], the values for the concentration giving a half-maximal response (EC50) on human TLR 8 protein and on human TLR7 were 2970 nM and 146 nM, respectively.

As for `CCCC(CCO)Oc1nc(N)c2ncc(Cc3ccc(CCNC)cc3)n2n1` (single isomer, unassigned) [Compound A120, (S or R)-3-((4-amino-7-(4-(2-(methylamino)ethyl)benzyl)imidazo[2,1-f][1,2,4]triazin-2-yl)oxy)hexan-1-ol], the figures for the EC50 at human TLR 8 protein and on human TLR7 were 59 nM and 3.9 nM, respectively.

As for `CCCC(CCO)Oc1nc(N)c2ncc(Cc3ccc(OCCNC)cc3OCC)n2n1` (single isomer, unassigned) [Compound A121, (R or S)-3-((4-amino-7-(2-ethoxy-4-(2-(methylamino)ethoxy)benzyl)imidazo[2,1-f][1,2,4]triazin-2-yl)oxy)hexan-1-ol], the EC50 was 19 nM at human TLR 8 protein and 0.63 nM at human TLR7.

Consider `CCCC(CCO)Oc1nc(N)c2ncc(Cc3ccc(OCC(C)NC)nc3)n2n1` (single isomer, unassigned) [Compound A122, (R or S)-3-((4-amino-7-((6-(2-(methylamino)propoxy)pyridin-3-yl)methyl)imidazo[2,1-f][1,2,4]triazin-2-yl)oxy)hexan-1-ol], for which the EC50 at human TLR 8 protein was 113 nM; at human TLR7, 6 nM.

For `CCCC(CCO)Oc1nc(N)c2ncc(Cc3c(F)cc(OCCNC)cc3F)n2n1` (single isomer, unassigned) [Compound A123, (R or S)-3-((4-amino-7-(2,6-difluoro-4-(2-(methylamino)ethoxy)benzyl)imidazo[2,1-f][1,2,4]triazin-2-yl)oxy)hexan-1-ol], the EC50 on human TLR 8 protein was determined as 15 nM; at human TLR7, 0.7 nM.

Turning to `CCCC(CCO)Oc1nc(N)c2ncc(Cc3ccc(OCCNC)c4ccccc34)n2n1` (single isomer, unassigned) [Compound A124, (R or S)-3-((4-amino-7-((4-(2-(methylamino)ethoxy)naphthalen-1-yl)methyl)imidazo[2,1-f][1,2,4]triazin-2-yl)oxy)hexan-1-ol], the EC50 on human TLR 8 protein was found to be 105 nM; at human TLR7, 1.2 nM.

For `CCCC(C)Oc1nc(N)c2ncc(Cc3ccc(OCCNC)nc3)n2n1` (centres unmarked) [Compound A77, 7-((6-(2-(methylamino)ethoxy)pyridin-3-yl)methyl)-2-(pentan-2-yloxy)imidazo[2,1-f][1,2,4]triazin-4-amine], the results for the EC50 at human TLR 8 protein and on human TLR7 were 293 nM and 19.2 nM, respectively.

As to `CCCC(C)Oc1nc(N)c2ncc(Cc3cnc(OCCNC)c(C)c3)n2n1` (centres unmarked) [Compound A78, 7-((5-methyl-6-(2-(methylamino)ethoxy)pyridin-3-yl)methyl)-2-(pentan-2-yloxy)imidazo[2,1-f][1,2,4]triazin-4-amine], the half-maximal effective concentration (EC50) on human TLR 8 protein was determined as 1140 nM; at human TLR7, 23 nM.

For the molecule `CCCC(CCO)Oc1nc(N)c2ncc(Cc3ccc(OCCNC)nc3)n2n1` (centres unmarked) [Compound A79, 3-((4-amino-7-((6-(2-(methylamino)ethoxy)pyridin-3 yl)methyl)imidazo[2,1-f][1,2,4]triazin-2-yl)oxy)hexan-1-ol], the EC50 came to 69 nM on human TLR 8 protein and 10 nM at human TLR7.

`CNCCOc1ccc(Cc2cnc3c(N)nc(OCC4CCOC4)nn23)cn1` (centres unmarked) [Compound A80, 7-((6-(2-(methylamino)ethoxy)pyridin-3-yl)methyl)-2-((tetrahydrofuran-3-yl)methoxy)imidazo[2,1-f][1,2,4]triazin-4-amine]: the EC50 at human TLR 8 protein is greater than 10000 nM; at human TLR7, 446 nM.
